The conditions of this data set: Liquid, Vibrating wire viscometry.

± gives the expanded uncertainty stated by the source.

The viscosity is the internal friction of a fluid under shear. As to `[Au]` [gold], the viscosity was 5.625 ± 0.65 mPa·s (1373 K); 5.47 ± 0.16 mPa·s (1423 K); 4.963 ± 0.36 mPa·s (1473 K); 4.764 ± 0.25 mPa·s (1523 K); 4.495 ± 0.32 mPa·s (1573 K); 4.276 ± 0.51 mPa·s (1623 K). Moreover, the viscosity (1673 K) was 3.981 ± 0.57 mPa·s.

Regarding `[Ag]` [silver], the viscosity (1273 K) was determined as 3.52 ± 0.74 mPa·s; the viscosity (1323 K) is 2.904 ± 0.45 mPa·s; the viscosity (1373 K) was found to be 2.812 ± 0.65 mPa·s; the viscosity (1423 K) turned out to be 2.649 ± 0.33 mPa·s; the viscosity (1473 K) came out at 2.54 ± 0.22 mPa·s; the viscosity (1523 K) came out at 2.498 ± 0.46 mPa·s. Further, the viscosity reads like this: (1573 K) 2.399 ± 0.35 mPa·s; (1623 K) 2.332 ± 0.39 mPa·s; (1673 K) 2.214 mPa·s.

`[Sn]` [tin]: the viscosity runs as follows: (873 K) 1.253 ± 0.2 mPa·s; (973 K) 1.142 ± 0.3 mPa·s; (1073 K) 1.087 ± 0.047 mPa·s.

Values taken from the NIST ThermoML archive (doi:10.1007/s10765-016-2104-7).
